The assay relates to three different species of yeast and two distinct species of bacteria. The experiment in a line: Growth inhibition of the yeast and bacteria strains of Table 5, summary. The assay is classed as cell-based. The procedure: For the experiments of the present invention (i) yeast strains obtained from clinical isolates and laboratory isolates, and (ii) bacterial strains obtained from laboratory isolates were used, as described in Table 5 as follows.
The yeast strains were grown in culture medium Sabouraud Dextrose Agar maintained at a temperature of 35° C. for 48 hours.
The bacterial strains were grown in culture medium Triptic Soy Agar at 35° C. for two to six hours (or until the turbidity of a McFarland standard solution equal to 0.5). 5.2 Mounting of Preparations and Test For the experiments, compound 1-[2-(2,4-dichlorophenyl)-2-{[4-(trifluoromethyl)benzyl]oxy}ethyl]-1H-imidazole (BL-123) in the form of its nitrate salt, 1-[2-(2,4-dichlorophenyl)]-2-({4-[(2-phenyl)-2H-tetrazole]benzyl}oxy)ethyl]-1H-imidazole (BL-137), and miconazole nitrate were used. The compounds were dissolved in dimethyl sulfoxide (DMSO) to match the final concentration of the compound equal to or less than 1%.
The methodology used to test the sensitivity of the agent was broth microdilution according to the method described in Standard M27-A2 (Reference method for broth dilution tests to determine the sensitivity of yeasts to antifungal therapy-second edition, NCCLS, volume 22 number 15, USA, 2002) as follows.
The yeast strains were grown according to item 5.1.a to obtain a culture containing between 1×10^6 and 5×10^6 CFU/mL. […]

Here are results for 1 molecule from patent US8975289B2, “Benzyl aralkyl ether compounds, method for preparing same, intermediate compounds, use of said compounds, method for treatment and/or prevention, pharmaceutical composition and medicament containing same” (priority 2009, dated 2015).

On to `FC(F)(F)c1ccc(COC(Cn2ccnc2)c2ccc(Cl)cc2Cl)cc1` (stereo not shown) [BL-123, 1-[2-(2,4-dichlorophenyl)-2-{[4-(trifluoromethyl)benzyl]oxy}ethyl]-1H-imidazole], for which the “Inhibitory effect on growth (in words)” value is given as “exert an inhibitory effect on the growth”.
